Laboratory results reported in patent publication US20190119193A1, “COMPOSITION FOR REGULATING PLANT GROWTH, METHOD FOR TREATING PLANTS THEREWITH, AND ACTIVE INGREDIENT THEREOF” (Ivan Aleksandrovich Starikov, priority 2016, published 2019).

Tested on: soybean seeds (“Vilana” variety)
Assay: Laboratory tests of DMOA and DEOA for soybean seeds
Type: in vivo
Settings: for Germinative energy: day 3; for Germinative capacity / Number of lateral roots / Sprout height / Taproot length: day 7
Description: After that DMOA and DEOA were dissolved in dimethyl sulfoxide to give solutions of 10 g/L concentration, then water was added to give aqueous solutions of DMOA with concentrations of 5.5·10^−5 M, 5.5·10^−6 M, 5.5·10^−7 M, 5.5·10^−8 M, 5.5·10^−9 M and DEOA with concentrations of 4.8·10^−5 M, 4.8·10^−6 M, 4.8·10^−7 M, 4.8·10^−8 M, 4.8·10^−9 M.
The obtained aqueous solutions of DMOA and DEOA were tested in the Scientific Center of Soil-Ecological Reasearch of the Federal State-Funded Educational Institution of Higher Education “Russian State Agrarian University—Moscow Agricultural Academy named after K. A. Timiryazev” (Moscow, 2015) according to the method described by T. A. Sergeeva (Method of laboratory testing of herbicides, Plant protection, 1963, No. 2, pp. 42-43). The primary laboratory screening of DMOA and DEOA was carried out on the seeds of five different crops: sunflower of “Voronezh 638” variety, soybean of “Vilana” variety, alfalfa of “Vega” variety, cucumber of “Nezhinsky” variety and tomato of “Volgogradets” variety.
Water was used as a reference.
A single experiment was carried out in a Petri dish. A circle of filter paper was laid at the bottom of the dish and treated with 5 ml of the work solution selected for the experiment. After that 25 seeds were uniformly laid on the surface of the treated filter paper. The Petri dish was kept at a temperature of 21-23° C. with illumination by fluorescent lamps for 7 days. The fourfold replication of the experiment within a single variant was applied.
The experiment identified the number and percentage of normally germinated seeds on day 3 (germinative energy) and on day 7 (germinative capacity) after the beginning of the experiment. On day 7 the main biometric parameters were also measured: sprout height (mm), taproot length (mm) and number of lateral roots (pcs).
The results were processed with the method of variance analysis with the help of STRAZ software in order to get the LSD0.05 (least significant difference between the test results on 5% significance level).

`CCOC(=O)C=C([O-])C(=O)OCC.[Na+]` [DEOA, sodium salt of diethyl ester of oxaloacetic acid] was tested, and the Germinative energy (4.8 · 10^−5 M) was 87 ↑ %, the Germinative capacity (4.8 · 10^−5 M) was 93% and the “Number of lateral roots” value (4.8 · 10^−5 M) was 0.3 pcs. For the same compound, the Sprout height (4.8 · 10^−5 M) was 15.3 mm, the Taproot length (4.8 · 10^−5 M) was 45.3 ↑ mm and the Germinative energy (4.8 · 10^−6 M) was 75%. The Germinative capacity (4.8 · 10^−6 M) was 87%, the “Number of lateral roots” value (4.8 · 10^−6 M) was 0.6 pcs and the Sprout height (4.8 · 10^−6 M) was 19.0 ↑ mm. For the same compound, the Taproot length (4.8 · 10^−6 M) was 37.7 mm, the Germinative energy (4.8 · 10^−7 M) was 72% and the Germinative capacity (4.8 · 10^−7 M) was 90%. The “Number of lateral roots” value (4.8 · 10^−7 M) was 0.3 pcs, the Sprout height (4.8 · 10^−7 M) was 14.7 mm and the Taproot length (4.8 · 10^−7 M) was 36.2 mm. For the same compound, the Germinative energy (4.8 · 10^−8 M) was 73%, the Germinative capacity (4.8 · 10^−8 M) was 93% and the “Number of lateral roots” value (4.8 · 10^−8 M) was 0.4 pcs. The Sprout height (4.8 · 10^−8 M) was 14.3 mm, the Taproot length (4.8 · 10^−8 M) was 33.6 mm and the Germinative energy (4.8 · 10^−9 M) was 80%. For the same compound, the Germinative capacity (4.8 · 10^−9 M) was 99 ↑ %, the “Number of lateral roots” value (4.8 · 10^−9 M) was 1.2 ↑↑ pcs and the Sprout height (4.8 · 10^−9 M) was 17.1 mm. For the same compound, the Taproot length (4.8 · 10^−9 M) was 46.5 ↑ mm.

In the case of “Sodium salt of dimethyl ester of oxaloacetic acid [DMOA]”, the Germinative energy (5.5 · 10^−5 M) is reported as 78%, the Germinative capacity (5.5 · 10^−5 M) is reported as 89% and the “Number of lateral roots” value (5.5 · 10^−5 M) is reported as 0.2 pcs. It also gave a Sprout height (5.5 · 10^−5 M) of 16.0 mm, a Taproot length (5.5 · 10^−5 M) of 35.5 mm and a Germinative energy (5.5 · 10^−6 M) of 82%. The Germinative capacity (5.5 · 10^−6 M) was 97%, the “Number of lateral roots” value (5.5 · 10^−6 M) was 0.0 pcs and the Sprout height (5.5 · 10^−6 M) was 19.0 ↑ mm. For the same compound, the Taproot length (5.5 · 10^−6 M) was 37.6 mm, the Germinative energy (5.5 · 10^−7 M) was 65% and the Germinative capacity (5.5 · 10^−7 M) was 90%. For the same compound, the “Number of lateral roots” value (5.5 · 10^−7 M) was 0.0 pcs, the Sprout height (5.5 · 10^−7 M) was 19.0 ↑ mm and the Taproot length (5.5 · 10^−7 M) was 39.5 mm. For the same compound, the Germinative energy (5.5 · 10^−8 M) was 77%, the Germinative capacity (5.5 · 10^−8 M) was 87% and the “Number of lateral roots” value (5.5 · 10^−8 M) was 0.0 pcs. For the same compound, the Sprout height (5.5 · 10^−8 M) was 19.5 ↑↑ mm, the Taproot length (5.5 · 10^−8 M) was 38.4 mm and the Germinative energy (5.5 · 10^−9 M) was 72%. The Germinative capacity (5.5 · 10^−9 M) was 83%, the “Number of lateral roots” value (5.5 · 10^−9 M) was 0.0 pcs and the Sprout height (5.5 · 10^−9 M) was 17.8 ↑ mm. It also gave a Taproot length (5.5 · 10^−9 M) of 37.0 mm.
